Values joined by “and” are separate entries in the source; they are usually repeats but may differ in a detail not shown here. Equal values may be shown once. Read-outs that look alike come from different tables or passages of the source.
Tests used:
downy mildew [1] = test: Cucumber downy mildew treating effect test (Test Example 1, Compound No. 1 with other fungicides); format: in vivo, cucumber (variety: Sagami Hanjiro)
Experimental: A cucumber (variety: Sagami Hanjiro) was cultivated in a plastic pot of 7.5 cm in diameter, and when it reached the bifoliate stage, a spore suspension of downy mildew was spray-inoculated thereto. Each of the liquids to be tested was sprayed thereto 17 hours thereafter using a spray gun at a ratio of 5 ml per seedling. In addition, the above-described Compound No. 1 liquid was also sprayed in the same manner. After keeping in a constant temperature chamber at 22 to 24° C. for 6 days, area of the lesion on the first leaf was inspected to calculate lesion area ratio (%), with the results shown in Table 3 and Table 4. In addition, each of the theoretical values of the infection ratio calculated based on the Colby's formula is also shown by the parentheses in Table 3 and Table 4.

late blight fungus = format: in vivo, tomato (variety: Ponderosa); conditions: for synergistic effect in mixed use with Compound No. 1: within the same concentration range as the preceding table
downy mildew [2] = test: Cucumber downy mildew treating effect test (Reference Example, Compound No. 1 with spreaders); format: in vivo, cucumber (variety: Sagami Hanjiro); conditions: no mixed use of spreader
Experimental: An effect reinforcing component was dispersed in water to a concentration of from 1,000 times to 10,000 times, and then the above-described Compound No. […] In this case, the spreaders shown in Table 1 and Table 2 were used as the effect reinforcing components. In addition, for the sake of comparison, a predetermined concentration (63 ppm or 16 ppm) of Compound No. 1 liquid containing no effect reinforcing component was prepared in the same manner as the above-described water dispersion.
A cucumber (variety: Sagami Hanjiro) was cultivated in a plastic pot of 7.5 cm in diameter, and when it reached the bifoliate stage, a spore suspension of downy mildew was spray-inoculated thereto. Each of the water dispersions to be tested was sprayed thereto 17 hours thereafter using a spray gun at a ratio of 5 ml per seedling. In addition, the above-described Compound No. 1 liquid was also sprayed in the same manner. After keeping in a constant temperature chamber at 22 to 24° C. for 6 days, area of the lesion on the first leaf was inspected to calculate lesion area ratio (%), with the results shown in Table 1 and Table 2. In addition, each of the theoretical values of the infection ratio calculated based on the Colby's formula was also shown by the parentheses in Table 1 and Table 2. In this connection, results similar to those which are shown in Table 1 and Table 2 are obtained within the same concentration range when a liquid comprising the Compound No. 1 and at least one selected from the group consisting of Dimethomorph, Chlorothalonil, a copper compound, Iprovalicarb, Zoxamide, phosphorous acid or a salt thereof, Fluazinam, Cyazofamid, Flumorph, Benthiavalicarb-isopropyl, Ethaboxam, Methalaxyl-M and Benalaxyl-M was used instead of the Compound No. 1 liquid.

[3] = other fungicide alone 250 ppm (Compound No. 1 0 ppm)
[4] = other fungicide alone 25 g/ha, 300 liters per hectare
[5] = other fungicide alone 100 g/ha, 300 liters per hectare
[6] = other fungicide alone 250 g/ha, 300 liters per hectare
[7] = other fungicide alone 200 ppm (Compound No. 1 0 ppm)

[Cl-].[Cu+2].[Cu+2].[OH-].[OH-].[OH-] [Basic copper chloride, basic copper chloride]
lesion area ratio (downy mildew [1]; other fungicide alone 1,000 ppm (Compound No. 1 0 ppm)): 100%
lesion area ratio (late blight fungus; other fungicide alone 500 ppm, sprayed at 10 ml per seedling): 100%
lesion area ratio (late blight fungus; other fungicide alone 1,000 ppm, sprayed at 10 ml per seedling): 100%

COc1ccc(C(=CC(=O)N2CCOCC2)c2ccc(Cl)cc2)cc1OC [Dimethomorph]
lesion area ratio (downy mildew [1]; [3]): 100%
lesion area ratio (downy mildew [1]; other fungicide alone 350 ppm (Compound No. 1 0 ppm)): 100%
lesion area ratio (late blight fungus; [4]): 87.5%
lesion area ratio (late blight fungus; [5]): 75.0%
lesion area ratio (late blight fungus; [6]): 62.5%

[Cu+2].[OH-].[OH-] [Cupric hydroxide, cupric hydroxide]
lesion area ratio (late blight fungus; other fungicide alone 200 g/ha, 300 liters per hectare): 50.0%
lesion area ratio (late blight fungus; other fungicide alone 800 g/ha, 300 liters per hectare): 43.3%
lesion area ratio (late blight fungus; other fungicide alone 2000 g/ha, 300 liters per hectare): 43.8%

CC(C)OC(=O)N[C@H](C(=O)N[C@H](C)c1nc2ccc(F)cc2s1)C(C)C [Benthiavalicarb-isopropyl]
synergistic effect in mixed use with Compound No. 1 (late blight fungus): Synergistic effect can also be obtained

Cc1ccc(C(C)NC(=O)[C@@H](NC(=O)OC(C)C)C(C)C)cc1 (some centres unmarked) [Iprovalicarb]
lesion area ratio (downy mildew [1]; [3]): 100%
lesion area ratio (late blight fungus; [4]): 25.0%
lesion area ratio (late blight fungus; [5]): 6.25%
lesion area ratio (late blight fungus; [6]): 6.25%

CCCOC(=O)NCCCN(C)C [Propamocarb]
lesion area ratio (downy mildew [1]; other fungicide alone 1,600 ppm (Compound No. 1 0 ppm)): 60%
lesion area ratio (late blight fungus; [5]): 87.5%
lesion area ratio (late blight fungus; other fungicide alone 400 g/ha, 300 liters per hectare): 75.0%

COc1ccc(/C(=C\C(=O)N2CCOCC2)c2ccc(F)cc2)cc1OC [Flumorph]
lesion area ratio (late blight fungus; [5]): 31.3%
lesion area ratio (late blight fungus; [6]): 12.5%

O=[PH]([O-])[O-].[Na+].[Na+] [Sodium phosphite, sodium phosphite (Na2HPO3)]
lesion area ratio (late blight fungus; other fungicide alone 500 g/ha, 300 liters per hectare): 75.0%
lesion area ratio (late blight fungus; other fungicide alone 1000 g/ha, 300 liters per hectare): 75.0%
lesion area ratio (late blight fungus; other fungicide alone 1500 g/ha, 300 liters per hectare): 50.0%

N#Cc1c(Cl)c(Cl)c(Cl)c(C#N)c1Cl [Chlorothalonil]
lesion area ratio (downy mildew [1]; other fungicide alone 500 ppm (Compound No. 1 0 ppm)): 100%
lesion area ratio (late blight fungus; other fungicide alone 13 ppm, sprayed at 10 ml per seedling): 100%
lesion area ratio (late blight fungus; other fungicide alone 25 ppm, sprayed at 10 ml per seedling): 17%
lesion area ratio (late blight fungus; [5]): 18.8%
lesion area ratio (late blight fungus; [6]): 25.0%

CCNc1nc(CC)c(C(=O)NC(C#N)c2cccs2)s1 (centres unmarked) [Ethaboxam]
lesion area ratio (downy mildew [1]; [7]): 30%
lesion area ratio (late blight fungus; [4]): 6.25%
lesion area ratio (late blight fungus; [5]): 6.25%

COCC(=O)N(c1c(C)cccc1C)[C@H](C)C(=O)OC [Metalaxyl-M]
synergistic effect in mixed use with Compound No. 1 (late blight fungus): Synergistic effect can also be obtained

O=[N+]([O-])c1cc(C(F)(F)F)c(Cl)c([N+](=O)[O-])c1Nc1ncc(C(F)(F)F)cc1Cl [Fluazinam]
lesion area ratio (late blight fungus; [5]): 37.5%
lesion area ratio (late blight fungus; [6]): 37.5%

Cc1c(Br)c2ccc(F)cc2n1S(=O)(=O)c1ncn(S(=O)(=O)N(C)C)n1 [Compound No. 1, 1-(N,N-dimethylsulfamoyl)-3-(3-bromo-6-fluoro-2-methylindol-1-yl)sulfonyl-1,2,4-triazole]
lesion area ratio (downy mildew [2]; Compound No. 1 4 ppm): 30%
lesion area ratio (downy mildew [2]; Compound No. 1 16 ppm): 60%
lesion area ratio (downy mildew [2]; Compound No. 1 63 ppm): 40%
lesion area ratio (downy mildew [1]; Compound No. 1 4 ppm, no mixed use of other fungicide): 30%
lesion area ratio (downy mildew [1]; Compound No. 1 16 ppm, no mixed use of other fungicide): 60%
lesion area ratio (downy mildew [1]; Compound No. 1 63 ppm, no mixed use of other fungicide): 40%
lesion area ratio (late blight fungus; Compound No. 1 1 ppm, no mixed use of other fungicide, sprayed at 10 ml per seedling): 83%
lesion area ratio (late blight fungus; Compound No. 1 alone 25 g/ha, 300 liters per hectare): 62.5% and 37.5%
lesion area ratio (late blight fungus; Compound No. 1 alone 250 g/ha, 300 liters per hectare): 31.3% and 25.0% and 37.5%

CCC(C)(NC(=O)c1cc(Cl)c(C)c(Cl)c1)C(=O)CCl (centres unmarked) [Zoxamide]
lesion area ratio (downy mildew [1]; [7]): 100%
lesion area ratio (late blight fungus; [4]): 43.8%
lesion area ratio (late blight fungus; [5]): 50.0%

O=[PH]([O-])[O-].[K+].[K+] [Potassium phosphite, potassium phosphite (K2HPO3)]
lesion area ratio (downy mildew [1]; [3]): 100%

COC(=O)[C@@H](C)N(C(=O)Cc1ccccc1)c1c(C)cccc1C [Benalaxyl-M]
lesion area ratio (late blight fungus; [4]): 50.0%
lesion area ratio (late blight fungus; [5]): 25.0%
lesion area ratio (late blight fungus; [6]): 6.25%

Cc1ccc(-c2c(Cl)nc(C#N)n2S(=O)(=O)N(C)C)cc1 [Cyazofamid]
lesion area ratio (late blight fungus; other fungicide alone 10 g/ha, 300 liters per hectare): 25.0%
lesion area ratio (late blight fungus; other fungicide alone 40 g/ha, 300 liters per hectare): 18.8%

— US8802708B2 (priority 2004, dated 2014)
